Data taken from patent publication US4457917A, “Peptide, process for its preparation and pharmaceutical composition containing same” (Max-Planck-Gesellschaft zur Foerderung der Wissenschaften …, priority 1981, dated 1984).
Non-standard residues stand in square brackets, D forms with d. No end group written: not given here. pGlu = O=C1CC[C@@H](C(=O)O)N1

Assays:
Hydra [1] = assay: Mitogen action on cell division in Hydra; format: in vivo
Hydra [2] = assay: Head-specific determination in Hydra (interstitial parent cell determined to the nerve cell); format: in vivo
embryonal brain cells = assay: Growth-stimulating action on embryonal brain cells; format: cell-based; settings: mammals
[3] = Blood pressure effect upon intraventricular administration; format: in vivo; settings: mammals

Substance: [pGlu]PPGGSKVILF [peptide of the invention]
- mitogen action, cell division of all types of cells (Hydra [1]): acts as a mitogen
- concentration at which the effect occurs (mitogen) (Hydra [1]; order of magnitude): ~10^-10 M
- head-specific determination (Hydra [2]): responsible for head-specific determination
- concentration at which the effect occurs (head-specific determination) (Hydra [2]; order of magnitude): ~10^-10 M
- action on growth of embryonal brain cells (embryonal brain cells): growth-stimulating action
- effect on blood pressure [3]: hypertensive (pressor) effect
